This note sets out measurements from patent publication US20230054887A1, “SWEETENING AND TASTE-MASKING COMPOSITIONS, PRODUCTS AND USES THEREOF” (HEALTHTECH BIO ACTIVES, S.L.U., priority 2017, published 2023).

Common to all, as to type: in vivo
Assay [1] in a line: Sweetening synergy sensory test: concentration equisweet to sucrose reference solutions in water, expert panel. Particulars: for Relative sweetening power: ratio sucrose concentration / equisweet concentration; for Equisweet concentration: room temperature. How it is done: A sensory test was performed to assess the sweetening synergism achieved with the composition of the invention (Examples A and B), and this effect was also compared to the effect obtained with analogous compositions containing beta-cyclodextrin (Comparative Examples A and B). Further compositions of the present invention (Examples C, D and E) were also assessed in this sensory test.
A group of expert panellists in sweet descriptors evaluated the sweetness of the different compositions as well as that of the ingredients NHDC, beta-cyclodextrin and gamma-cyclodextrin used alone.
Each evaluated sweetening agent was dissolved in water at different concentrations, at room temperature. The panel then determined, for each product, the concentration that was equisweet to the reference solutions of 1% and 3% sucrose in water. The results are summarized in Table 3 (Examples A and B are abbreviated as Ex. A and Ex. B, respectively, and the Comparative Examples A and B are abbreviated as Comp. A and Comp. B, respectively).
Since beta- and gamma-cyclodextrins are also sweet compounds, the equisweet concentrations of both cyclodextrins were also determined by the test panel to assess their possible contribution to the sweetness of the composition. […] Therefore, as the equisweet concentrations of both cyclodextrins are at least three orders of magnitude larger than those of NHDC, it was concluded that their contribution to the sweetness was negligible.
A more quantitative evaluation of the sweetness synergy provided by the compositions of the present invention was performed by comparing the real measured sweetness of the compositions comprising gamma-cyclodextrin and NHDC with the theoretical sweetness expected from the sum of the individual contribution of each component in the composition.
To this end, the relative sweetening power of each component was first calculated. For comparative purposes, the relative sweetening power of beta-cyclodextrin was also calculated. The relative sweetening power of a given compound, at a given sweetness level, indicates how many times sweeter this compound is than sucrose. It is therefore calculated as the ratio between the concentration of sucrose and the equisweet concentration of each ingredient, for each sweetness level.
From the relative sweetening power of each ingredient, it is possible to calculate the expected sweetness (sucrose equivalence) of a blend of those ingredients, according to Formula I:
Expected sweetness (sucrose equivalence) of a blend C1+C2=Concentration of compound C1×relative sweetening power of compound C1+Concentration of compound C2×relative sweetening power of compound C2
Then, the sweetness synergy of a blend of components can be calculated according to Formula II: […]
As disclosed above in Example 3, the relative sweetening power of a given compound, at a given sweetness level, indicates how many times sweeter than sucrose the compound is, and the value is calculated as the ratio between the concentration of sucrose and the equisweet concentration of the compound.

Assay [2] is described as follows: Masking bitterness of paracetamol, calibrated test panel, equibitter solution. Particulars: 5000 ppm paracetamol. How it is done: The bitter masking effect against paracetamol was assayed. The anti-bittering effect was measured as a dose-response profile vs. a solution of paracetamol.
The following substances were assayed: NHDC alone, gamma-cyclodextrin alone and compositions comprising NHDC and gamma-cyclodextrin in a molar ratio 1:3 (Example B), 1.5:1 (Example C), 1:6 (Example D) and 1:10 (Example E).
For evaluating the masking effect of each substance, several aqueous solutions were prepared, each containing 5000 ppm of paracetamol and different concentrations of the tested substance, namely, 5, 25, 50, 75 and 100 ppm.
A calibrated test panel compared each solution with several solutions of paracetamol in water at different concentrations, and determined the equibitter paracetamol solution. The equibitter solution was calculated as the average of all the evaluations of the panel.
The masking effect was then calculated from the reference amount of paracetamol contained in each tested solution (5000 ppm) and the amount of paracetamol in the equibitter solution, using the following formula (Formula III): […]
For calculating the masking synergies between gamma-cyclodextrin and NHDC, first, for each amount of the combination (Examples A-E), using the molecular weight of each component, the amounts of gamma-cyclodextrin and NHDC contained therein were calculated. For example, 100 ppm of Example B contain 13.61 ppm of NHDC and 86.39 ppm of gamma-cyclodextrin. Then, the antibittering contribution of each component in the composition was calculated, on the basis of the data of Table 13. For example, 13.61 ppm of NHDC provide 9.44% masking effect and 86.39 ppm of gamma-cyclodextrin provide 5.46% masking effect (the antibittering effects for each specific concentration was calculated by interpolation of the data points in Table 13). Therefore, the expected masking effect is calculated as the sum of the contributions of each component. For example, the expected masking effect of 100 ppm of Example B is 14.90 (i.e., 9.44 plus 5.46).
Finally, the masking synergy is calculated using Formula IV: […]
The masking effect of Examples C (NHDC:gCD 1.5:1), D (NHDC:gCD 1:6) and E (NHDC:gCD 1:10) was also evaluated. Aqueous solutions were prepared, each one of them containing 5000 ppm of paracetamol and different concentrations of each one of the tested formulations Ex. C-E, namely, 25 and 50 ppm. Results are disclosed in Tables 15 to 17.

Assay [3] can be described thus: Masking bitterness of quinine, test panel, equibitter solution. Particulars: 250 ppm quinine. As to the method:
The bitter masking effect against quinine was assayed, following an analogous procedure to the one used in Example 10 for paracetamol.
The following substances were assayed: NHDC alone, beta-cyclodextrin alone, a composition comprising NHDC and beta-cyclodextrin in a molar ratio 1:1 (Example F) and a composition comprising NHDC and beta-cyclodextrin in a molar ratio 1:3 (Example G).
Analogously to Example 10, several aqueous solutions were prepared, each containing 250 ppm of quinine and different concentrations of the tested substance, namely, 5, 25, 50, 75 and 100 ppm. For each tested solution, a test panel determined the equibitter quinine solution, and the masking effect was calculated using a formula analogous to formula III (substituting 5000 with […]).
The masking synergies between beta-cyclodextrin and NHDC in Examples F and G were calculated following an analogous procedure to the one disclosed in Example 10. Therefore, using the molecular weight of each component, the amounts of beta-cyclodextrin and NHDC contained in each amount of the combinations of Examples F and G were calculated and, then, the antibittering contribution of each component was calculated on the basis of the data of Table 19. The expected masking effect was calculated as the sum of the contributions of each component, and, finally, the masking synergy was calculated (using Formula IV).

The nature of assay [4]: Taste profile by calibrated taste panel at concentrations equisweet to 3% sucrose. Particulars: 0- to 5-point scale. How it is done:
The overall taste profile achieved with the sweetening composition of the present invention was evaluated and compared with the target taste profile of sucrose.
For this assay, all samples were evaluated at the same sweetness level, so each sample was used at a concentration which was equisweet to 3% sucrose. For each sample, the following parameters were evaluated: • Time to first sweetness detection • Time to maximum sweetness • Lingering (time for the sweetness to disappear) • Off-flavour: menthol, liquorice (any tastes that are different from sweetness) • Mouthfeel (density, i.e., the perceived viscosity in the mouth)
These evaluations were carried out by a calibrated taste panel, and conducted at room temperature.
Each of those parameters was evaluated on a 0- to 5-point scale. The values for sucrose were the reference, and were considered the target to emulate.

The mark [5] stands for this setting: equisweet to 1% sucrose in water.
The mark [6] stands for this setting: equisweet to 3% sucrose in water.

On to `OC[C@H]1O[C@@H]2O[C@H]3[C@H](O)[C@@H](O)[C@@H](O[C@H]4[C@H](O)[C@@H](O)[C@@H](O[C@H]5[C@H](O)[C@@H](O)[C@@H](O[C@H]6[C@H](O)[C@@H](O)[C@@H](O[C@H]7[C@H](O)[C@@H](O)[C@@H](O[C@H]8[C@H](O)[C@@H](O)[C@@H](O[C@H]9[C@H](O)[C@@H](O)[C@@H](O[C@H]1[C@H](O)[C@H]2O)O[C@@H]9CO)O[C@@H]8CO)O[C@@H]7CO)O[C@@H]6CO)O[C@@H]5CO)O[C@@H]4CO)O[C@@H]3CO` [gCD, gamma-cyclodextrin], for which the Relative sweetening power in assay [1] (1% sucrose level) worked out at 0.4000; in assay [1] (3% sucrose level), 0.3529. Moreover, the Equisweet concentration in assay [1] (setting [5]) turned out to be 25000 ppm; in assay [1] (setting [6]), 85000 ppm. In addition, the “Masking effect (real)” value in assay [2] (tested substance 5 ppm) was found to be 1.00%; in assay [2] (tested substance 25 ppm), 2.00%; in assay [2] (tested substance 50 ppm), 4.00%; in assay [2] (tested substance 75 ppm), 5.00%; in assay [2] (tested substance 100 ppm), 6.00%.

On to `OC[C@H]1O[C@@H]2O[C@H]3[C@H](O)[C@@H](O)[C@@H](O[C@H]4[C@H](O)[C@@H](O)[C@@H](O[C@H]5[C@H](O)[C@@H](O)[C@@H](O[C@H]6[C@H](O)[C@@H](O)[C@@H](O[C@H]7[C@H](O)[C@@H](O)[C@@H](O[C@H]8[C@H](O)[C@@H](O)[C@@H](O[C@H]1[C@H](O)[C@H]2O)O[C@@H]8CO)O[C@@H]7CO)O[C@@H]6CO)O[C@@H]5CO)O[C@@H]4CO)O[C@@H]3CO` [bCD, Beta-Cyclodextrin], for which the Relative sweetening power worked out at 0.8333 in assay [1] (1% sucrose level) and 0.4286 in assay [1] (3% sucrose level). Besides, the figures for the Equisweet concentration in assay [1] (setting [5]) and in assay [1] (setting [6]) were 12000 ppm and 70000 ppm, respectively. Moreover, the “Masking effect (real)” value in assay [3] (tested substance 5 ppm) is recorded as 0.00%; in assay [3] (tested substance 25 ppm), 6.67%; in assay [3] (tested substance 50 ppm), 11.67%; in assay [3] (tested substance 75 ppm) it was 16.67%; in assay [3] (tested substance 100 ppm), 13.33%.

Regarding `OC[C@H]1O[C@@](CO)(O[C@H]2O[C@H](CO)[C@@H](O)[C@H](O)[C@H]2O)[C@@H](O)[C@@H]1O` [Sucrose, sucrose], in assay [4], the Lingering is listed as 2.00; the “Mouthfeel (density)” value is 4.00; the “Off-flavour: menthol, licorice” value worked out at 0.00; the “Time to first sweetness” value stood at 1.00. In addition, in assay [4], the “Time to maximum sweetness” value was 2.00 and the Total sweetness amounted to 5.00.
